Measurements published in patent US9623016B2, “Antibacterial compounds” (Emergent Virology LLC, priority 2013, dated 2017).
Where two headings read alike, the source gives them in different places.

Key:
B. subtilis = test system: B. subtilis
Description: (§1) The MIC assay is a technique used to determine the lowest concentration of a particular antibiotic needed to inhibit visible growth of bacteria. In this method, two fold serial dilutions of the compound were prepared in broth media. An inoculum of overnight bacterial cultures will be prepared in the same broth medium. The serial dilution tubes will be inoculated with 0.025 ml of undiluted over-night culture (1:100), a 1×10-2 dilution (1:10,000), or a 1×10-4 dilution (1:1,000,000) of bacterial suspension. Results were recorded after 24 hour incubation at 35° C. without shaking by measuring OD600. The MIC is determined by the lowest concentration of compound where no growth is visible.

E. coli (K12) = test system: E. coli (K12)
Description: as §1

E. coli (WT) = test system: E. coli (WT)
Description: as §1

P. aeruginosa 4858 = test system: P. aeruginosa 4858
Description: as §1

P. aeruginosa 4961 = test system: P. aeruginosa 4961
Description: as §1

COCCCCCCCCCN1C[C@H](O)[C@@H](O)[C@H](O)[C@H]1CO.Cl [UV-4B, hydrochloric acid salt of N-(9-Methoxynonyl)deoxynojirimycin]
625 µg/mL: MIC (B. subtilis; Table 4)
+ (+ OD600 <0.05): growth (OD600) (B. subtilis; Table 4, 0.02 mg/ml) | growth (OD600) (B. subtilis; Table 4, 0.04 mg/ml) | growth (OD600) (B. subtilis; Table 4, 0.08 mg/ml) | growth (OD600) (B. subtilis; Table 4, 0.16 mg/ml) | growth (OD600) (B. subtilis; Table 4, 0.31 mg/ml) | growth (OD600) (P. aeruginosa 4858; Table 4, 0.02 mg/ml) | growth (OD600) (P. aeruginosa 4858; Table 4, 0.04 mg/ml) | growth (OD600) (P. aeruginosa 4858; Table 4, 0.08 mg/ml) | growth (OD600) (P. aeruginosa 4858; Table 4, 0.16 mg/ml) | growth (OD600) (P. aeruginosa 4858; Table 4, 0.31 mg/ml) | growth (OD600) (P. aeruginosa 4858; Table 4, 0.63 mg/ml)
− (− OD600 >0.05): growth (OD600) (B. subtilis; Table 4, 0.63 mg/ml) | growth (OD600) (B. subtilis; Table 4, 2.50 mg/ml) | growth (OD600) (B. subtilis; Table 4, 5 mg/ml) | growth (OD600) (B. subtilis; Table 4, 10 mg/ml) | growth (OD600) (B. subtilis; Table 4, 20 mg/ml) | growth (OD600) (P. aeruginosa 4858; Table 4, 2.50 mg/ml) | growth (OD600) (P. aeruginosa 4858; Table 4, 5 mg/ml) | growth (OD600) (P. aeruginosa 4858; Table 4, 10 mg/ml) | growth (OD600) (P. aeruginosa 4858; Table 4, 20 mg/ml)
2500 µg/mL: MIC (B. subtilis; Table 3) | MIC (P. aeruginosa 4858; Table 4)
5000 µg/mL: MIC (E. coli (K12); Table 3) | MIC (E. coli (WT); Table 3) | MIC (P. aeruginosa 4858; Table 3) | MIC (P. aeruginosa 4961; Table 3)
−: visible growth (B. subtilis; UV-4B 2.50 mg/ml) | visible growth (B. subtilis; UV-4B 5 mg/ml) | visible growth (B. subtilis; UV-4B 10 mg/ml) | visible growth (E. coli (K12); UV-4B 5 mg/ml) | visible growth (E. coli (K12); UV-4B 10 mg/ml) | visible growth (E. coli (K12); UV-4B 20 mg/ml) | visible growth (E. coli (WT); UV-4B 5 mg/ml) | visible growth (E. coli (WT); UV-4B 10 mg/ml) | visible growth (P. aeruginosa 4858; UV-4B 5 mg/ml) | visible growth (P. aeruginosa 4858; UV-4B 10 mg/ml) | visible growth (P. aeruginosa 4858; UV-4B 20 mg/ml)
+: visible growth (B. subtilis; UV-4B 0.02 mg/ml) | visible growth (B. subtilis; UV-4B 0.04 mg/ml) | visible growth (B. subtilis; UV-4B 0.08 mg/ml) | visible growth (B. subtilis; UV-4B 0.16 mg/ml) | visible growth (B. subtilis; UV-4B 0.31 mg/ml) | visible growth (B. subtilis; UV-4B 0.63 mg/ml) | visible growth (E. coli (K12); UV-4B 0.04 mg/ml) | visible growth (E. coli (K12); UV-4B 0.08 mg/ml) | visible growth (E. coli (K12); UV-4B 0.16 mg/ml) | visible growth (E. coli (K12); UV-4B 0.31 mg/ml) | visible growth (E. coli (K12); UV-4B 0.63 mg/ml) | visible growth (E. coli (K12); UV-4B 2.50 mg/ml) | visible growth (E. coli (WT); UV-4B 0.02 mg/ml) | visible growth (E. coli (WT); UV-4B 0.04 mg/ml) | visible growth (E. coli (WT); UV-4B 0.08 mg/ml) | visible growth (E. coli (WT); UV-4B 0.16 mg/ml) | visible growth (E. coli (WT); UV-4B 0.31 mg/ml) | visible growth (E. coli (WT); UV-4B 0.63 mg/ml) | visible growth (E. coli (WT); UV-4B 2.50 mg/ml) | visible growth (P. aeruginosa 4858; UV-4B 0.63 mg/ml) | visible growth (P. aeruginosa 4858; UV-4B 2.50 mg/ml) | visible growth (P. aeruginosa 4961; UV-4B 0.04 mg/ml) | visible growth (P. aeruginosa 4961; UV-4B 0.08 mg/ml) | visible growth (P. aeruginosa 4961; UV-4B 0.16 mg/ml) | visible growth (P. aeruginosa 4961; UV-4B 0.31 mg/ml) | visible growth (P. aeruginosa 4961; UV-4B 0.63 mg/ml) | visible growth (P. aeruginosa 4961; UV-4B 2.50 mg/ml)
